From ChEMBL document CHEMBL1201862, “PubChem BioAssay data set” (2004)
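Where inhibition never reached the appropriate level, the endpoint shown equals the highest concentration tested. Otherwise, values were interpolated linearly from a five-concentration, 48-hour dose response in 96-well plates. GI50 marks 50% less growth.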 The source made the active and inactive calls. Cut-off read from the data, not from the text of the source: active = GI50 up to about 1.1 µM and inactive = higher.

Tests used:
Assay in all cases: growth of human tumour cells (NCI), 48 h
OVCAR-4 = system: OVCAR-4
SF-295 = system: SF-295
CAKI-1 = system: CAKI-1
HOP-62 = system: HOP-62
EKVX = system: EKVX
SNB-75 = system: SNB-75
M14 = system: M14
OVCAR-3 = system: OVCAR-3
OVCAR-8 = system: OVCAR-8
SW-620 = system: SW-620
NCI-H23 = system: NCI-H23
UACC-62 = system: UACC-62
HCT-15 = system: HCT-15
HOP-92 = system: HOP-92
ACHN = system: ACHN
RXF 393 = system: RXF 393
MDA-N = system: MDA-N
DU-145 = system: DU-145
PC-3 = system: PC-3
NCI/ADR-RES = system: NCI/ADR-RES

| SMILES | GI50 (OVCAR-4) | GI50 (SF-295) | GI50 (CAKI-1) | GI50 (HOP-62) | GI50 (EKVX) | GI50 (SNB-75) | GI50 (M14) | GI50 (OVCAR-3) | GI50 (OVCAR-8) | GI50 (SW-620) | GI50 (NCI-H23) | GI50 (UACC-62) | GI50 (HCT-15) | GI50 (HOP-92) | GI50 (ACHN) | GI50 (RXF 393) | GI50 (MDA-N) | GI50 (DU-145) | GI50 (PC-3) | GI50 (NCI/ADR-RES) |
| --- | --- | --- | --- | --- | --- | --- | --- | --- | --- | --- | --- | --- | --- | --- | --- | --- | --- | --- | --- | --- |
| COc1ccc(OC)c(/C=N/N=C(\N)NO)c1 | 7.28 µM (inactive) | 21.9 µM (inactive) | 8.04 µM (inactive) | 29.6 µM (inactive) | 13.3 µM (inactive) | 72.4 µM (inactive) | 20.1 µM (inactive) | 23.8 µM (inactive) | 27.7 µM (inactive) | 24.3 µM (inactive) | 27 µM (inactive) | 4.61 µM (inactive) | 5.98 µM | 23.3 µM (inactive) | 12.3 µM (inactive) | 39.5 µM (inactive) | – | – | – | – |
| c1ccc(C[N+]23C(CC[C@H]2c2ccccc2)CC[C@H]3c2ccccc2)cc1 (stereo partly specified) | 31 µM (inactive) | 35.3 µM (inactive) | > 100 µM (inactive) | 33.5 µM (inactive) | 24 µM (inactive) | 21.4 µM (inactive) | 21.6 µM (inactive) | 14.3 µM (inactive) | 30.2 µM (inactive) | 43.4 µM (inactive) | – | – | – | 13.2 µM (inactive) | > 100 µM (inactive) | 18.3 µM (inactive) | 21.2 µM (inactive) | 32.9 µM (inactive) | 26.7 µM (inactive) | – |
| CCc1n[nH]c(=O)n1/N=C(\C)c1ccccc1 | > 100 µM (inactive) | > 100 µM (inactive) | > 100 µM (inactive) | > 100 µM (inactive) | 68.5 µM (inactive) | – | > 100 µM (inactive) | > 100 µM (inactive) | > 100 µM (inactive) | > 100 µM (inactive) | > 100 µM (inactive) | > 100 µM (inactive) | > 100 µM | – | > 100 µM (inactive) | > 100 µM (inactive) | > 100 µM (inactive) | > 100 µM (inactive) | > 100 µM (inactive) | > 100 µM (inactive) |
| COc1cccc2c1OC(c1cccc3ccccc13)C([N+](=O)[O-])=C2 (stereo unspecified) | 3.32 µM (inactive) | 1.88 µM (inactive) | 2.33 µM (inactive) | 2.1 µM (inactive) | 3.07 µM (inactive) | 1.32 µM (inactive) | 1.31 µM (inactive) | 1.34 µM (inactive) | 4.24 µM (inactive) | – | 1.84 µM (inactive) | 1.08 µM (active) | 1.55 µM | – | 1.6 µM (inactive) | 1.31 µM (inactive) | 1.93 µM (inactive) | 2.65 µM (inactive) | 0.902 µM (active) | 1.71 µM (inactive) |
| Cc1ccccc1-n1c(=O)c2ncn(C3CCCO3)c2n(-c2ccccc2C)c1=S (stereo unspecified) | > 10 µM (inactive) | > 100 µM (inactive) | > 100 µM (inactive) | > 100 µM (inactive) | > 100 µM (inactive) | 79.4 µM (inactive) | > 100 µM (inactive) | > 100 µM (inactive) | > 100 µM (inactive) | > 100 µM (inactive) | > 100 µM (inactive) | > 100 µM (inactive) | > 100 µM | > 100 µM (inactive) | > 100 µM (inactive) | > 100 µM (inactive) | > 100 µM (inactive) | > 100 µM (inactive) | – | > 100 µM (inactive) |
| O=C(O)c1nc2cc(C(F)(F)F)ccc2nc1Nc1ccc(Cl)c(Cl)c1 | 21.2 µM (inactive) | 10.3 µM (inactive) | 28.4 µM (inactive) | 14.5 µM (inactive) | 17.9 µM (inactive) | 20.5 µM (inactive) | 13 µM (inactive) | 13.5 µM (inactive) | 12.6 µM (inactive) | 10.8 µM (inactive) | 14.3 µM (inactive) | 12.3 µM (inactive) | 12.3 µM | 11 µM (inactive) | 11.6 µM (inactive) | 20.9 µM (inactive) | 14 µM (inactive) | – | 4.3 µM (inactive) | 10.5 µM (inactive) |
| CCCCCCCCCC(=O)NC(CCC(=O)N(CCNC(=O)c1nc(-c2ccccc2)oc1-c1ccccc1)Cc1ccccc1)C(=O)O (stereo unspecified) | 20.5 µM (inactive) | 18.1 µM (inactive) | 16.7 µM (inactive) | 16.4 µM (inactive) | 16.6 µM (inactive) | 14.5 µM (inactive) | 15 µM (inactive) | 16.3 µM (inactive) | 17.5 µM (inactive) | 23.3 µM (inactive) | 17.9 µM (inactive) | – | 16 µM | 17.6 µM (inactive) | 18.8 µM (inactive) | 17.6 µM (inactive) | 18.4 µM (inactive) | 20.3 µM (inactive) | – | 16.6 µM (inactive) |
| Cc1ccc([N+](=O)[O-])c2c(NCCC[N+](C)(C)[O-])c3ccccc3nc12 | 2.02 µM (inactive) | 3.43 µM (inactive) | 21 µM (inactive) | 2.56 µM (inactive) | 1.11 µM (active) | 0.655 µM (active) | 2.34 µM (inactive) | 2.19 µM (inactive) | 4.75 µM (inactive) | 2.18 µM (inactive) | 0.573 µM (active) | 1.64 µM (inactive) | 4.99 µM | 0.962 µM (active) | 5.57 µM (inactive) | 1.35 µM (inactive) | – | 1.43 µM (inactive) | 0.755 µM (active) | > 95.3 µM (inactive) |
| CCOC(=O)c1cc(-c2ccc(OC)cc2)c([N+](=O)[O-])n1C | > 10 µM (inactive) | > 10 µM (inactive) | – | – | > 10 µM (inactive) | > 10 µM (inactive) | > 10 µM (inactive) | > 10 µM (inactive) | > 10 µM (inactive) | – | > 10 µM (inactive) | > 10 µM (inactive) | > 10 µM | > 10 µM (inactive) | > 10 µM (inactive) | 2.13 µM (inactive) | 8.91 µM (inactive) | > 10 µM (inactive) | – | > 10 µM (inactive) |
| CCOC(=O)[C@@H]1ON2O[C@@H](OC3CCCC3(c3ccccc3)c3ccccc3)C[C@H]3OC(=O)[C@@H]1C32 (stereo partly specified) | – | > 100 µM (inactive) | 17.2 µM (inactive) | 31 µM (inactive) | > 100 µM (inactive) | 32.4 µM (inactive) | 16.6 µM (inactive) | 23.4 µM (inactive) | 32.8 µM (inactive) | 24.7 µM (inactive) | 18.4 µM (inactive) | 19.1 µM (inactive) | 31 µM | 64.6 µM (inactive) | 19.5 µM (inactive) | 17.1 µM (inactive) | 20.7 µM (inactive) | 22.6 µM (inactive) | – | 34.4 µM (inactive) |
| CC1OC(CC2C=CCc3c(O)c4c(c(O)c32)C(=O)c2ccccc2C4=O)CC(NC(=O)C(F)(F)F)C1O (stereo unspecified) | 2.79 µM (inactive) | 5.74 µM (inactive) | 7.55 µM (inactive) | 6.49 µM (inactive) | 12.6 µM (inactive) | 2.27 µM (inactive) | 4.29 µM (inactive) | 6.76 µM (inactive) | 4.22 µM (inactive) | 14.3 µM (inactive) | 7.59 µM (inactive) | 4.71 µM (inactive) | 11.9 µM | 2.92 µM (inactive) | 10.9 µM (inactive) | 2.52 µM (inactive) | – | – | – | – |
| CCCCc1c2c(nc3c1CCc1cc(C=O)c(N)nc1-3)/C(=C/c1ccccc1)CCC2 | > 100 µM (inactive) | > 100 µM (inactive) | > 100 µM (inactive) | > 100 µM (inactive) | 48.4 µM (inactive) | > 100 µM (inactive) | > 100 µM (inactive) | > 100 µM (inactive) | 46.2 µM (inactive) | > 100 µM (inactive) | > 100 µM (inactive) | > 100 µM (inactive) | 86.3 µM | > 100 µM (inactive) | > 100 µM (inactive) | > 100 µM (inactive) | – | – | – | – |
| CC(C)[Si](OC12CCC(CC1O)CC2CO)(C(C)C)C(C)C (stereo unspecified) | 11.5 µM (inactive) | 12.2 µM (inactive) | 18.7 µM (inactive) | 16.4 µM (inactive) | – | 13.9 µM (inactive) | 15.1 µM (inactive) | 14.5 µM (inactive) | 16.2 µM (inactive) | 21.1 µM (inactive) | 12.8 µM (inactive) | 14.9 µM (inactive) | 14.1 µM | 12.1 µM (inactive) | 14.2 µM (inactive) | – | – | 16.9 µM (inactive) | 11.8 µM (inactive) | 15 µM (inactive) |
| CCC12C=CCN3CCC4(C(=C(C(=O)OC)[C@@H]1O)Nc1ccccc14)C32 (stereo partly specified) | 2.12 µM (inactive) | 2.05 µM (inactive) | 2.29 µM (inactive) | 2.12 µM (inactive) | 1.85 µM (inactive) | 1.9 µM (inactive) | 2.2 µM (inactive) | 1.99 µM (inactive) | 2.04 µM (inactive) | 1.72 µM (inactive) | 1.85 µM (inactive) | 1.77 µM (inactive) | 1.57 µM | 1.6 µM (inactive) | 1.56 µM (inactive) | 1.36 µM (inactive) | – | – | – | – |
| CC(CCC[C@H](C)CO)[C@H]1[C@@H](O)C(O)C2[C@@H]3C[C@@H](O)C4(O)C[C@@H](O)CC[C@]4(C)C3CC[C@@]21C (stereo partly specified) | > 100 µM (inactive) | > 100 µM (inactive) | > 100 µM (inactive) | > 100 µM (inactive) | > 100 µM (inactive) | > 100 µM (inactive) | > 100 µM (inactive) | > 100 µM (inactive) | > 100 µM (inactive) | > 100 µM (inactive) | > 100 µM (inactive) | > 100 µM (inactive) | > 100 µM | 87.3 µM (inactive) | > 100 µM (inactive) | > 100 µM (inactive) | – | – | – | – |
| COc1ccc2[nH]c3c(c2c1)CCn1c-3nc2ccccc2c1=O | > 25 µM (inactive) | > 25 µM (inactive) | – | > 25 µM (inactive) | > 25 µM (inactive) | > 25 µM (inactive) | > 25 µM (inactive) | – | > 25 µM (inactive) | > 25 µM (inactive) | – | – | > 25 µM | – | > 25 µM (inactive) | – | > 25 µM (inactive) | – | > 25 µM (inactive) | > 25 µM (inactive) |
